According to US20250170154A1 (GreenStone Biosciences, Inc., priority 2023, published 2025):
Read-outs that look alike come from different tables or passages of the source.

Key:
[1] = Stability in simulated gastric fluid (SGF); format: in vitro ADME; settings: SGF pH 1.2, 37° C., 2 μM
Description: The stability of compounds 1 to 4, and the control compound omeprazole, were measured in simulated gastric fluid (SGF: 0.2% w/v sodium chloride, 0.7% v/v hydrochloric acid, and 0.32% w/v pepsin in deionized water, pH 1.2±0.05). Stock solutions of the compounds (10 mM) were diluted to 200 μM in DMSO, then duplicate 2 μL aliquots added to 96-well plates for time points 0, 1, 2, 6, and 24 hours. SGF (198 μL) was added to all wells except those for time 0, to give a starting compound concentration of 2 μM; and the samples were incubated at 37° C. with agitation at 600 rpm for the prescribed times. After incubation, 200 μL of each sample was extracted and mixed with 400 μL cold ACN containing 200 ng/mL tolbutamide and labetalol as internal standards. The samples were centrifuged at […] for 20 minutes at 4° C., and the supernatants (60 μL) each diluted with purified water (180 μL) for LC/MS/MS analysis. The percentage of the test compound remaining at each time point was calculated based on the ratio of the peak area of the analyte to the internal standards.

[2] = Thermodynamic solubility in FaSSIF; format: physicochemical; settings: thermodynamic from solid, room temperature, 24 hours shaking
Description: After shaking, the samples were centrifuged at 25° C. for 20 minutes at 4000 rpm. Filtrates were prepared using the Whatman Mini-UniPrep Syringeless Filter Device (PTFE filter media with polypropylene housing, pore size 0.45 μm) from Cytiva, and dilutions were performed as required. Quantification of all samples was carried out using an LC-UV system.

[3] = Wang et al.; cited from earlier work
[4] = system: patients with bladder cancer; settings: 300 and 600 mg daily for 21 days; cited from earlier work
[5] = Pharmacokinetics in the rat, solid form (powder in mini-capsules); format: in vivo
[6] = system: healthy volunteers; settings: amorphous solid dispersion, single doses 500 to 3000 mg, then 3000 mg over six consecutive days; cited from earlier work
[7] = system: wild-type mice fed a high fat diet; assay: Genistein in wild-type mice fed a high fat diet; format: in vivo, mouse; settings: high fat diet 12 weeks, then intraperitoneal 200 mg/Kg genistein in corn oil for 14 days
[8] = system: children with Sanfillipo syndrome; settings: 160 mg/kg/day for 12 months, median age 7.2 years; cited from earlier work
[9] = system: mdx mice; settings: Messina et al., cited from earlier work
[10] = system: mice with L-arginine induced acute pancreatitis; settings: Siriviriyakul et al., cited from earlier work
[11] = system: postmenopausal women; settings: 54 mg per day, cited from earlier work
[12] = log P; format: physicochemical
[13] = system: transthyretin tetramer (TTR); settings: Green et al.; cited from earlier work
[14] = molecular target: transthyretin tetramer (TTR) (Homo sapiens, UniProt P02766); settings: Green et al.; cited from earlier work
[15] = system: rats with cerulein (AEP) or sodium taurocholate (ANP) induced pancreatitis; settings: Xia et al.; cited from earlier work
[16] = system: rat model of monocrotaline-induced pulmonary hypertension; settings: Matori et al.; cited from earlier work
[17] = system: Db/Db mice fed a high fat diet; assay: Genistein in Db/Db mice fed a high fat diet; format: in vivo, mouse; settings: high fat diet 6 weeks, then oral gavage 50 mg/Kg genistein in corn oil for 47 days
[18] = Pharmacokinetics in the rat, dosing in solution; settings: in vivo
[19] = molecular target: G protein-coupled estrogen receptor (Homo sapiens, UniProt Q99527); settings: cited from earlier work
G protein-coupled estrogen receptor, sequence (Q99527 whole entry): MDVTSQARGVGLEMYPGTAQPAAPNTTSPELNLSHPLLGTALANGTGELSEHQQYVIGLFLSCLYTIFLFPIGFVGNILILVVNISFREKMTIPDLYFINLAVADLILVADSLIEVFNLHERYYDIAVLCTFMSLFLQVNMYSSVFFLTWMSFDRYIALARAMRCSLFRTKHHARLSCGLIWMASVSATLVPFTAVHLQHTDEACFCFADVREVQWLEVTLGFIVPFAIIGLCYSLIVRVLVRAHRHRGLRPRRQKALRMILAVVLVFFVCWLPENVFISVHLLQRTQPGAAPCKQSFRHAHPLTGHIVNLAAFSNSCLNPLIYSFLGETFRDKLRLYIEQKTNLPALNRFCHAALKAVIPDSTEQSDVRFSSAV

[20] = Intestinal stability, human intestinal S9; format: in vitro ADME
Description: (§1) The stability of compounds 1 and 2, and the control compound 7-hydroxycoumarin, were measured using human, rat, and mouse intestinal S9 fractions (Xenotech). Test compound working solutions were prepared by diluting 5 μL of 10 mM stock solutions in DMSO with 495 μL AN. S9 solutions were prepared by diluting the obtained S9 solutions to 1.0 mg/mL in 100 mM potassium phosphate buffer at pH 7.4 containing 10 mM D-saccharic acid-1,4-lactone. An Apricot automation workstation was used to add 100 μL/well of S9 solution to all reaction plates (Blank, T0, T5, T15, T30, T45, T60 and NCF60); 2 μL/well of compound working solutions were added to all 96-well reaction plates except the blank (T0, T5, T15, T30, T45, T60, and NCF60); 600 μL/well of stop solution (4° C. ACN containing 200 ng/mL tolbutamide and 200 ng/mL labetalol as internal standards) was added to the T0 reaction plate; all plates were pre-incubated at 37° C. for 10 minutes; a cofactor regenerating system (98 μL/well) was added, excluding the NCF60 plate which instead received 98 μL/well of 100 mM potassium phosphate buffer. All plates were then incubated at 37° C. To terminate reactions, 600 μL/well of stop solution was applied at specific end time points. After sealing and a 10-minute shaking, plates were centrifuged at 4000 rpm and 4° C. for 20 minutes. Concurrently, 300 μL/well of HPLC grade water was loaded onto eight new 96-well bioanalysis plates. Post-centrifugation, 100 μL supernatant from each reaction plate was transferred to its corresponding bioanalysis plate, shaken for 10 minutes, and then subjected to LC-MS/MS analysis (Shimadzu LC-40D LC system coupled to a Sciex Qtrap 6500 Plus mass spectrometer, using both positive and negative ion modes).

[21] = Intestinal stability, mouse intestinal S9; format: in vitro ADME; settings: intestinal S9 fraction
Description: as §1

[22] = Conjugate formation in intestinal S9 incubations; format: in vitro ADME, human, rat, mouse
Description: as §1, with “Concurrently, 300 μL/well of HPLC grade water was loaded onto eight new 96-well bioanalysis plates. Post-centrifugation, 100 μL supernatant from each reaction plate was transferred to its corresponding bioanalysis plate, shaken for 10 minutes, and then subjected to LC-MS/MS analysis (Shimadzu LC-40D LC system coupled to a Sciex Qtrap 6500 Plus mass spectrometer, using both positive and negative ion modes).” left out

[23] = Intestinal stability, rat intestinal S9; format: in vitro ADME
Description: as §1

[24] = solid form, genistein 71 mg/Kg together with 14.2 mg/Kg inulin
[25] = intestinal S9 fraction, pH 7.4, read-out: intrinsic clearance rate

Compound: COc1ccc2[nH]c([S+]([O-])Cc3ncc(C)c(OC)c3C)nc2c1 (centres unmarked) [Omeprazole, omeprazole, reference compound]
- Percentage remaining at time: 1 hour [1]: 35.4%
- Percentage remaining at time: 2 hours [1]: 23.1%
- Percentage remaining at time: 6 hours [1]: 4.2%
- Percentage remaining at time: 24 hours [1]: 0%
- Percentage remaining at time: 0 [1]: 100%

Compound: O=c1c(-c2ccc(O)cc2)coc2cc(OP(=O)(O)O)cc(O)c12 [Genistein-7-O-phosphate, genistein 7-O-phosphate, reference compound]
- solubility at 24 h ([2]; read-out: Solubility): 3.57 mM
- solubility at 24 h ([2]; read-out: Solubility (μg/mL)): 1250 µg/mL
- bioavailability [3]: more bioavailable than aglyconic genistein
- water solubility [3]: practically water soluble

Compound: O=c1c(-c2ccc(OCOP(=O)(O)O)cc2)coc2cc(OCOP(=O)(O)O)cc(O)c12 [Compound 3, ((5-Hydroxy-4-oxo-3-(4-((phosphonooxy)methoxy)phenyl)-4H-chromen-7-yl)oxy)methyl dihydrogen phosphate]
- solubility at 24 h ([2]; read-out: Solubility): 10.2 mM
- solubility at 24 h ([2]; read-out: Solubility (μg/mL)): 5000 µg/mL
- Percentage remaining at time: 1 hour [1]: 95.1%
- Percentage remaining at time: 2 hours [1]: 101%
- Percentage remaining at time: 6 hours [1]: 96.1%
- Percentage remaining at time: 24 hours [1]: 51.4%
- Percentage remaining at time: 0 [1]: 100%

Compound: O=c1c(-c2ccc(O)cc2)coc2cc(O)cc(O)c12 [Genistein, 5,7-dihydroxy-3-(4-hydroxyphenyl)-4H-chromen-4-one]
- tolerability [4]: well tolerated, with no to mild side effects
- solubility at 24 h ([2]; read-out: Solubility): 0.027 mM
- solubility at 24 h ([2]; read-out: Solubility (μg/mL)): 7.29 µg/mL
- AUC(0-t) ([5]; male, SD, rat, in vivo, po, 71 mg/kg, solid form, genistein 71 mg/Kg alone, considerable variability, read-out: mean AUC0-last of dosed compound in plasma): ~500 ng·h/mL
- AUC(0-t) ([5]; male, SD, rat, in vivo, po, 71 mg/kg, solid form, genistein 71 mg/Kg together with 14.2 mg/Kg inulin, read-out: mean AUC0-last with addition of inulin): ~300 ng·h/mL
- Cmax ([5]; male, SD, rat, in vivo, po, 71 mg/kg, read-out: mean cmax of dosed compound in plasma): ~160 ng/mL
- Tmax ([5]; male, SD, rat, in vivo, po, 71 mg/kg, read-out: mean tmax of dosed compound in plasma): ~3 h
- half-life ([5]; male, SD, rat, in vivo, po, read-out: mean t1/2 of dosed compound in plasma (converted)): ~120 min
- effect of inulin on the peak [5, 24]: slightly reducing
- time of peak with addition of inulin [5, 24]: around 5 hours
- adverse effects [6]: No significant adverse effects were reported, other than instances of diarrhea, headache or nausea at the highest dosages
- reduction of fasting blood glucose [7]: ~30%
- adverse effects [8]: No treatment-specific severe adverse effects were reported
- markers of oxidative stress [9]: reduced
- muscle necrosis [9]: reduced
- muscle regeneration [9]: enhanced
- serum creatine-kinase levels [9]: reduced
- forelimb strength and strength normalized to weight ([9]; five-week old mdx mice, five weeks, daily or 3-times/week): increased
- edema, necrosis and cell death induced by L-arginine ([10]; 10 mg/Kg/day and 100 mg/Kg/day): significantly reducing
- serum amylase, IL-6 and CRP levels ([10]; 10 mg/Kg/day and 100 mg/Kg/day): significantly reduced
- NF-κB and 4-HNE expression [10]: curbing
- bone mineral density at femoral neck and lumbar spine ([11]; after 36 months): greater increases
- mammographic breast density, endometrial thickness, expression of BRCA1 and BRCA2 ([11]; after 36 months): no significant changes
- sister chromatid exchange compared to placebo ([11]; after 36 months): reducing
- discomfort or adverse events between participants [11]: No differences
- logP [12]: 3.04
- amyloidogenesis of TTR mutations V30M and V122I [13]: inhibits
- acid-mediated fibril formation, of that exhibited by TTR alone [14]: < 10%
- binding to TTR in plasma over all of the other plasma proteins [14]: highly selective binding
- necrosis, edema and inflammatory infiltration compared to the experimental models [15]: mitigated
- monocrotaline-induced preexisting PH [16]: reversed
- progression of severe PH to right heart failure [16]: prevented
- right ventricular ejection fraction [16]: restoring
- right ventricular pressure [16]: reducing
- reduction of HbA1C [17]: ~37%
- reduction of fasting blood glucose [17]: ~57%
- AUC(0-t) ([18]; solution, 25 mg/Kg nominal, fasted male SD rat, read-out: mean AUC0-last of dosed compound in plasma): ~500 ng·h/mL
- Cmax ([18]; solution, 25 mg/Kg nominal, fasted male SD rat, read-out: mean cmax of dosed compound in plasma): ~300 ng/mL
- half-life ([18]; solution, 25 mg/Kg nominal, fasted male SD rat, read-out: mean t1/2 of dosed compound in plasma (converted)): ~78 min
- Tmax ([18]; solution, 25 mg/Kg nominal, fasted male SD rat, read-out: mean tmax of dosed compound in plasma (converted)): 10 min
- affinity, agonist of G protein-coupled estrogen receptor [19]: 133 nM

Compound: O=c1c(-c2ccc(OCOP(=O)(O)O)cc2)coc2cc(O)cc(O)c12 [Compound 1, (4-(5,7-Dihydroxy-4-oxo-4H-chromen-3-yl)phenoxy)methyl dihydrogen phosphate]
- solubility at 24 h ([2]; read-out: Solubility): 12.5 mM
- solubility at 24 h ([2]; read-out: Solubility (μg/mL)): 4770 µg/mL
- Percentage remaining at time: 1 hour [1]: 94.4%
- Percentage remaining at time: 2 hours [1]: 91.5%
- Percentage remaining at time: 6 hours [1]: 83.8%
- Percentage remaining at time: 24 hours [1]: 42.1%
- Percentage remaining at time: 0 [1]: 100%
- normalized control factor remaining [20]: 24.9%
- half-life at 1 µM ([20]; intestinal S9 fraction, pH 7.4): 28.7 min
- microsomal CLint at 1 µM [20, 25]: 48.4 µL/min/mg
- half-life at 1 µM ([21]; pH 7.4): 29.7 min
- microsomal CLint at 1 µM ([21]; pH 7.4, read-out: intrinsic clearance rate): 46.7 µL/min/mg
- formation of glucuronidation, sulfation, and glutathione conjugates [22]: noticeable absence
- Cmax ([18]; male, SD, rat, 25 mg/kg): ~15 ng/mL
- Tmax ([18]; male, SD, rat, 25 mg/kg): ~8 min
- decline of plasma concentration of dosed compound ([18]; rat, 25 mg/kg): very rapid decline in concentration
- normalized control factor remaining [23]: 30.4%
- half-life at 1 µM ([23]; intestinal S9 fraction, pH 7.4): 2.6 min
- microsomal CLint at 1 µM [23, 25]: 526 µL/min/mg

Compound: CC(C)(CCCOP(=O)(O)O)C(=O)Oc1ccc(-c2coc3cc(O)cc(O)c3c2=O)cc1 [Compound 4, 4-(5,7-Dihydroxy-4-oxo-4H-chromen-3-yl)phenyl 2,2-dimethyl-5-(phosphonooxy)pentanoate]
- solubility at 24 h ([2]; read-out: Solubility): 0.612 mM
- solubility at 24 h ([2]; read-out: Solubility (μg/mL)): 293 µg/mL
- Percentage remaining at time: 1 hour [1]: 104%
- Percentage remaining at time: 2 hours [1]: 110%
- Percentage remaining at time: 6 hours [1]: 114%
- Percentage remaining at time: 24 hours [1]: 106%
- Percentage remaining at time: 0 [1]: 100%
